Source: publication PMC10800023 (Human Molecular Genetics, 2023)

Tests used:
[1] = Published PK data in patients; settings: in vivo, oral, human, 0.75 mg/kg, extrapolated assuming linear increase from the lower dose
Description: ^a Conklin […] JM, Hoffman EP, Jusko WJ, Mavroudis PD, Schwartz BD, […] LJ, Smith EC, Mah JK, Guglieri M, Nevo Y, Kuntz N, McDonald CM, Tulinius M, Ryan MM, Webster R, Castro D, Finkel RS, Smith AL, Morgenroth […], Jaros M, Shale […] JM, […], Ward […], Cornish MR, Clemens PR. […] Epub 2018 Sep 13. PMID: 30219580; PMCID: PMC6218284. […] Bashar T, Apu […]. […] Dose Response. 2018 Jul 25;16(3):1559325818783932. doi: 10.1177/1559325818783932. PMID: 30083083; PMCID: PMC6073839. ^c Assumed linear increase in AUC and Cmax from 0.25 to 0.75 mg/kg. This may be an overestimate. However, there is support for linearity in Al-Habet S, Rogers HJ. Pharmacokinetics of intravenous and oral prednisolone. Br J Clin Pharmacol. 1980 Nov;10(5):503-8. doi: 10.1111/j.1365-2125.1980.tb01796.x. PMID: 7437263; PMCID: PMC1430141. ^d https://www.accessdata.fda.gov/drugsatfda_docs/nda/2017/208684,208685[…]

C57BL/6 mice [2] = assay: Tail-suspension test in WT mice after 35 days (Study 3); format: in vivo, mouse; settings: daily for 35 days, prednisolone 15 mg/kg or vamorolone 45 mg/kg
Procedure: In the CNS of these miceFkbp5 mRNA and Ddrd4 mRNA levels were increased (Supplementary Fig. S3d and e). Expression of FKBP5 is reported to be GRE regulated, and Drd4 is a reported biomarker of depression.
• 1) Force-swim test: Animals were single housed and acclimated in the behavior room for 30 min prior to test. A clean 1-L beaker was filled with 700 to 800 ml of 23°C water. Each mouse was placed into the water for 6 min. The total immobility time was recorded. After the test, the animals were dried and placed in a cage on a heating pad for about 10 min before returning to the home cages. • 2) Tail-suspension test: Isolated mice were suspended 50 cm above the floor by surgical tape placed approximately 1 cm from the tip of the tail for 6 min. The total immobility time of mice was measured. Mice were considered immobile only when they hung passively and completely motionless.

MDCK cells = assay: MDCK control cell permeability (not transfected with human P-gp); settings: 1 μM
Procedure: To measure transport by P-gp, Madin-Darby canine kidney (MDCK) cells that had been transfected with the human P-gp (MDR1) gene were plated in a Transwell plate and cultured until polarized. MDCK cells that are not transfected with human P-gp were used as a control. Compounds were added to either the apical or the basolateral side of the cells, and transport across the membrane was measured.
Testing for permeability and MDR1 substrate assessment was done in MDCK cells transfected to overexpress human MDR1 gene that encodes efflux transporter protein (P-gp). […] Briefly, cells were maintained in Dulbecco’s modified Eagle medium (DMEM) with 10% fetal bovine serum and 1% penicillin/streptomycin in a humidified incubator at 37°C with 5% CO2. The study was performed by Absorption Systems (now Pharmaron; Exton, PA). The MDR1-MDCK and MDCK control cell lines were seeded into 12-well plates for 7 days. Integrity of monolayer tight junctions was monitored preincubation by transepithelial electrical resistance (TEER) measurement. […] The samples were withdrawn at t = 0 and 60 min from the receiver and donor compartments. Compound levels were measured by LC/MS–MS. Additionally, post-assay, cell monolayer integrity was checked with Lucifer Yellow permeability measurement. Transport assay low- and high-permeability control compounds were run in parallel for assay validation. Papp values were calculated considering compound concentrations across the monolayer and cell surface area. Efflux ratios were calculated based on Papp B > A over Papp A > B. The difference between the MDR1-MDCK and the MDCK cell efflux ratios was also calculated. […] Compounds were classified by Absorption Systems/Pharmaron as follows: […]

in vivo [3] = settings: DBA/2 J, mouse, plasma, po
Procedure: (§1) The brain-to-plasma ratio was then calculated using the area under the curve (AUC) for brain exposure and the AUC for plasma exposure.

in vivo [4] = settings: C57BL/10, mouse, oral; for Kp: brain/plasma; for AUC / Cmax: plasma
C57BL/6 mice [5] = assay: RT-qPCR of brain mRNA in WT mice (Study 3); settings: daily for 35 days, prednisolone 15 mg/kg or vamorolone 45 mg/kg
Procedure: RNA concentration was measured by using Cytation 5 (BioTek).

[6] = Pharmacokinetics and biodistribution in C57BL/10 mice
[7] = Pharmacokinetics and brain/plasma biodistribution in WT DBA/2 J mice
Procedure: as §1

B10-mdx mice = assay: Four-limb grip strength (Study 2); format: in vivo, mouse; settings: 4 weeks of treatment, not complete, not dose dependent
Procedure: After 4 weeks of treatment, muscle strength was evaluated using a grip strength meter.
Study 2: The goal of the second study was to evaluate corticosteroid side effects and efficacy in a longer study (4 months). After 28 days of dosing, mice were tested for depression-like behavior using a measure of corticosteroid-induced depression (FST followed by TST). Muscle function was tested via grip strength. Tests for depression and for grip-strength were done in a blinded manner. After 4 months, mice were euthanized, and tissues were collected. Bone from whole left leg was collected for micro-CT analysis. The number of animals per group was as follows: WT, n = 16; B10-mdx, n = 15; corticosteroid-treated groups, n = 8–10.
A four-limb grip strength meter from Bioseb was used to determine the maximal peak force (g) developed by the mouse when the examiner tried to pull it out of a specially designed grid for mice (Bioseb, BIO-GS3 & BIO-GRIPGS). The examiner was blinded, and a total of 5 measurements were applied to each mouse, 1–2 min between measurements. The average of the 5 values was used for subsequent calculations.

[8] = DBA/2 J, mouse, in vivo
Procedure: as §1

[9] = 30 mg/kg oral gavage, DBA/2 J mice

For `C[C@]12C=CC(=O)C=C1CC[C@@H]1[C@@H]2[C@@H](O)C[C@@]2(C)[C@H]1CC[C@]2(O)C(=O)CO` [Prednisolone], which Cmax [1] is on record?
The Cmax was roughly 0.705 µg/mL.

What about the AUC ([1]; read-out: AUC (Day 1)) of the same compound?
The AUC was roughly 7.07 µg·h/mL.

And the “depression-like behavior as measured by the TST” value (C57BL/6 mice [2])?
Its value is “induced depression-like behavior”.

Which “Apical to Basolateral MDCK” value (MDCK cells) does the source give for `C[C@@H]1C[C@H]2[C@@H]3CCC4=CC(=O)C=C[C@]4(C)C3=CC[C@]2(C)[C@@]1(O)C(=O)CO` [Vamorolone] here?
The value was 33.4 10 ^ −6 cm/s.

What about the “depression-like behavior as measured by the TST” value (C57BL/6 mice [2]) of the same compound?
The value was “induced depression-like behavior”.

What about the AUC (in vivo [3]; 15 mg/kg) of the same compound?
The AUC was 9.35 µg·h/mL.

And the Cmax (in vivo [3]; 15 mg/kg)?
The Cmax was 1.98 µg/mL.

What about the AUC (in vivo [3]; 30 mg/kg) of the same compound?
Its AUC is 26.6 µg·h/mL.

What about the Cmax (in vivo [3]; 30 mg/kg) of the same compound?
Its Cmax is 2.7 µg/mL.

What about the AUC (in vivo [3]; 45 mg/kg) of the same compound?
The AUC was 34.1 µg·h/mL.

And the Cmax (in vivo [3]; 45 mg/kg)?
The Cmax was 3.47 µg/mL.

What about the Kp (in vivo [4]; 5 mg/kg) of the same compound?
The Kp was 0.5.

And the Kp (in vivo [4]; 30 mg/kg)?
The Kp was 0.46.

What about the AUC (in vivo [4]; 5 mg/kg) of the same compound?
Its AUC is 2.85 µg·h/mL.

And the Cmax (in vivo [4]; 5 mg/kg)?
The Cmax was 0.818 µg/mL.

And the AUC (in vivo [4]; 30 mg/kg)?
The AUC was 33.9 µg·h/mL.

What about the Cmax (in vivo [4]; 30 mg/kg) of the same compound?
The Cmax was 8.79 µg/mL.

And the “Ddrd4 mRNA levels in the CNS” value (C57BL/6 mice [5])?
Its value is “increased”.

What about the “Fkbp5 mRNA levels in the CNS” value (C57BL/6 mice [5]) of the same compound?
The value was “increased”.

What about the “Brain AUC” value ([6]; 5 mg/kg) of the same compound?
The value was 1418 hr∙ng/g of tissue.

What about the “Brain Cmax” value ([6]; 5 mg/kg) of the same compound?
The value was 443 ng/g of tissue.

What about the “Brain/plasma ratio based on Cmax” value ([6]; 5 mg/kg) of the same compound?
Its value is 0.54.

What about the “Brain AUC” value ([6]; 30 mg/kg) of the same compound?
Its value is 15538 hr∙ng/g of tissue.

What about the “Brain Cmax” value ([6]; 30 mg/kg) of the same compound?
Its value is 4402 ng/g of tissue.

And the “Brain AUC” value [7, 9]?
Its value is 8070 h∙ng/g of tissue.

What about the “Brain Cmax” value [7, 9] of the same compound?
Its value is 1825 ng/g of tissue.

What about the “Brain/plasma ratio based on AUC” value [7, 9] of the same compound?
The value was roughly 0.30.

What about the “Brain/plasma ratio based on Cmax” value [7, 9] of the same compound?
The value was roughly 0.68.

What about the “fold higher exposure in the mouse (based on Cmax) than human clinical exposure” value ([7]; 15, 30, and 45 mg/kg in mouse vs 6 mg/kg/day in human) of the same compound?
The value was 2–4 fold.

What about the Cmax ([7]; mouse (DBA), 30 mg/kg) of the same compound?
The Cmax was 2.7 µg/mL.

Which grip strength (B10-mdx mice) does the source give for `CC(=O)OCC(=O)[C@@]12N=C(C)O[C@@H]1C[C@H]1[C@@H]3CCC4=CC(=O)C=C[C@]4(C)[C@H]3[C@@H](O)C[C@@]12C` [Deflazacort] here?
Its grip strength is “showed some protection from loss of grip strength”.

What about the “predicted AUC in mice” value [8] of the same compound?
The value was 0.446 µg·h/mL.

What about the “predicted Cmax in mice” value [8] of the same compound?
The value was 0.2675 µg/mL.
